Data reported in PubChem BioAssay (NCI).
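Cells were grown in 96-well plates and exposed to each compound for 48 hours at five concentrations; endpoints were interpolated linearly between bracketing concentrations, or set to the highest concentration if not reached. The concentration for full growth arrest is given as TGI.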

Tests used:
Test in all cases: growth of human tumour cells (NCI), 48 h
SNB-78 CNS = tested on: SNB-78 CNS
KM12 colon = tested on: KM12 colon
CCRF-CEM leukemia = tested on: CCRF-CEM leukemia
SK-OV-3 ovarian = tested on: SK-OV-3 ovarian
A549 NSCLC = tested on: A549 NSCLC
KM20L2 colon = tested on: KM20L2 colon
K-562 leukemia = tested on: K-562 leukemia
HCT-15 colon = tested on: HCT-15 colon
OVCAR-8 ovarian = tested on: OVCAR-8 ovarian
SK-MEL-5 melanoma = tested on: SK-MEL-5 melanoma
SNB-19 CNS = tested on: SNB-19 CNS
HOP-92 NSCLC = tested on: HOP-92 NSCLC
SK-MEL-2 melanoma = tested on: SK-MEL-2 melanoma
HL-60(TB) leukemia = tested on: HL-60(TB) leukemia
RPMI-8226 leukemia = tested on: RPMI-8226 leukemia
DMS 114 small cell lung = tested on: DMS 114 small cell lung
NCI-H522 lung = tested on: NCI-H522 lung
UACC-257 melanoma = tested on: UACC-257 melanoma
SF-268 CNS = tested on: SF-268 CNS
UACC-62 melanoma = tested on: UACC-62 melanoma
HCC-2998 colon = tested on: HCC-2998 colon
MOLT-4 leukemia = tested on: MOLT-4 leukemia
SNB-75 CNS = tested on: SNB-75 CNS
M14 melanoma = tested on: M14 melanoma
OVCAR-4 ovarian = tested on: OVCAR-4 ovarian
A498 renal = tested on: A498 renal
CAKI-1 renal = tested on: CAKI-1 renal
COLO 205 colon = tested on: COLO 205 colon
ACHN renal = tested on: ACHN renal
TK-10 renal = tested on: TK-10 renal
SR leukemia = tested on: SR leukemia
NCI-H460 lung = tested on: NCI-H460 lung
OVCAR-3 ovarian = tested on: OVCAR-3 ovarian
EKVX NSCLC = tested on: EKVX NSCLC
UO-31 renal = tested on: UO-31 renal
DLD-1 colon = tested on: DLD-1 colon
SF-295 CNS = tested on: SF-295 CNS
IGROV1 ovarian = tested on: IGROV1 ovarian
OVCAR-5 ovarian = tested on: OVCAR-5 ovarian
HCT-116 colon = tested on: HCT-116 colon
786-0 renal = tested on: 786-0 renal
LOX IMVI melanoma = tested on: LOX IMVI melanoma
NCI-H23 lung = tested on: NCI-H23 lung
SF-539 CNS = tested on: SF-539 CNS
M19-MEL melanoma = tested on: M19-MEL melanoma
DMS 273 small cell lung = tested on: DMS 273 small cell lung
SK-MEL-28 melanoma = tested on: SK-MEL-28 melanoma
SN12C renal = tested on: SN12C renal
NCI-H226 lung = tested on: NCI-H226 lung
HT29 colon = tested on: HT29 colon
HOP-62 NSCLC = tested on: HOP-62 NSCLC
HOP-18 NSCLC = tested on: HOP-18 NSCLC
SW-620 colon = tested on: SW-620 colon
U251 CNS = tested on: U251 CNS
MALME-3M melanoma = tested on: MALME-3M melanoma
RXF 393 renal = tested on: RXF 393 renal

CCOC(=O)C1=C(O)c2ccc(OC)cc2C(=O)C1=O
TGI (SNB-78 CNS): > 100 µM
TGI (KM12 colon): > 100 µM
TGI (CCRF-CEM leukemia): > 100 µM
TGI (SK-OV-3 ovarian): > 100 µM
TGI (A549 NSCLC): > 100 µM
TGI (KM20L2 colon): > 100 µM
TGI (K-562 leukemia): > 100 µM
TGI (HCT-15 colon): > 100 µM
TGI (OVCAR-8 ovarian): > 100 µM
TGI (SK-MEL-5 melanoma): > 100 µM
TGI (SNB-19 CNS): > 100 µM
TGI (HOP-92 NSCLC): > 100 µM
TGI (SK-MEL-2 melanoma): > 100 µM
TGI (HL-60(TB) leukemia): > 100 µM
TGI (RPMI-8226 leukemia): > 100 µM
TGI (DMS 114 small cell lung): > 100 µM
TGI (NCI-H522 lung): > 100 µM
TGI (UACC-257 melanoma): > 100 µM
TGI (SF-268 CNS): > 100 µM
TGI (UACC-62 melanoma): > 100 µM
TGI (HCC-2998 colon): > 100 µM
TGI (MOLT-4 leukemia): > 100 µM
TGI (SNB-75 CNS): > 100 µM
TGI (M14 melanoma): > 100 µM
TGI (OVCAR-4 ovarian): > 100 µM
TGI (A498 renal): > 100 µM
TGI (CAKI-1 renal): > 100 µM
TGI (COLO 205 colon): > 100 µM
TGI (ACHN renal): > 100 µM
TGI (TK-10 renal): > 100 µM
TGI (SR leukemia): > 100 µM
TGI (NCI-H460 lung): > 100 µM
TGI (OVCAR-3 ovarian): > 100 µM
TGI (EKVX NSCLC): > 100 µM
TGI (UO-31 renal): > 100 µM
TGI (DLD-1 colon): > 100 µM
TGI (SF-295 CNS): > 100 µM
TGI (IGROV1 ovarian): > 100 µM
TGI (OVCAR-5 ovarian): > 100 µM
TGI (HCT-116 colon): > 100 µM
TGI (786-0 renal): > 100 µM
TGI (LOX IMVI melanoma): > 100 µM
TGI (NCI-H23 lung): > 100 µM
TGI (SF-539 CNS): > 100 µM
TGI (M19-MEL melanoma): 44.4 µM
TGI (DMS 273 small cell lung): > 100 µM
TGI (SK-MEL-28 melanoma): > 100 µM
TGI (SN12C renal): > 100 µM
TGI (NCI-H226 lung): > 100 µM
TGI (HT29 colon): > 100 µM
TGI (HOP-62 NSCLC): > 100 µM
TGI (HOP-18 NSCLC): 66.5 µM
TGI (SW-620 colon): > 100 µM
TGI (U251 CNS): > 100 µM
TGI (MALME-3M melanoma): > 100 µM
TGI (RXF 393 renal): > 100 µM
